Assay results taken from article PMC7211195 (Investigational New Drugs, 2019).
Read-outs that look alike come from different tables or passages of the source.

Assay: Lapatinib pharmacokinetics and uptake in rat brain tissue (BT);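 on BT corr (BT homogenate corrected), single rat: brain concentration corrected for residual brain blood by the Fridén method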;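 on BT corr (BT homogenate), single rat: brain concentration corrected for residual brain blood by the Fridén method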
Assay type: in vivo, rats
Details: male, Wistar, rat; for AUC(0-inf) / AUC(0-t) / Cmax / Tmax / k el: brain tissue
Procedure: This study was conducted on rats, which are a promising model to predict P-gp-based drug-drug interactions at the human BBB [15]. The animals were allowed to acclimate for one week before the beginning of the experiments. Adult male Wistar-strain rats (weight 470–525 g) were used in the study. The animals were maintained under standard breeding conditions with a 12/12 h light-dark cycle (lights on at 6.00 a.m., lights off at 6.00 p.m.) at constant room temperature (23 ± 2 °C), relative humidity (55 ± 10%) and ad libitum access to food and water. The experimental protocol for this study was reviewed and approved by the Local Ethics Committee. To obtain consistent data, the study was based on the required minimum number of animals and observation time. […] Three rats were used at each time point (n = 3). In total, the research was conducted on 66 animals (n = 33 in the experimental group and n = 33 in the control group).
Elacridar was freshly dissolved in a vehicle at an initial concentration of 20 mg/mL. […] A volume of 80 μL of blood was collected from each rat by cutting off a piece of its tail. The blood samples were collected into heparinized test tubes at the following time points: […], and they were immediately centrifuged at 2880 g for 10 min at 4 °C. The anaesthetized rats (anaesthetized by intramuscular administration of 50 mg/kg ketamine and 10 mg/kg xylazine) were prepared for cisterna magna puncture. The hair over the puncture was removed and the skin was disinfected with alcohol. The animals were placed in a recumbent position with an elevated rear part of the body. The animals’ heads were slightly flexed and immobilized with the operator’s left hand. The space between the occiput rostrally and the atlas (C1) of the spinal column caudally was gently palpated with the left thumb. A 0.7 × 20 G needle with polyethylene tubing (Terumo Poland, Warsaw, Poland) was gently inserted at an approximate angle of 80–90° through the skin with the operator’s right hand into the midsagittal region. The moment that dura mater perforation was perceptible, a small amount of CSF was found in the needle tubing. To sample additional CSF, a 1 mL insulin syringe (Becton Dickinson, Warsaw, Poland) was used to collect 80–120 μL of CSF by very gentle aspiration. Only clear CSF was collected for further analysis. […] The animals’ brains were immediately dissected, washed in 0.9% NaCl and divided along the longitudinal axis. One of the brain hemispheres was again rinsed three times with 5 mL of 0.9% NaCl, weighed and homogenized with 0.9% NaCl (4 mL per 1 g of BT) in an Ultra-Turrax homogenizer (Witko, Łódź, Poland). The homogenate was then centrifuged at 4500 g for 10 min. All samples of the rat BP, CSF, and BT homogenate supernatant were stored at −80 °C until analysis.
The chromatographic analysis was conducted using a 1260 Infinity system (Agilent Technologies, Santa Clara, USA) equipped with a Kinetex® C18 column (50 × 4.6 mm, 2.6 μm, Phenomenex, Torrance, USA), which was maintained at 35 °C. The mobile phase consisted of 0.1% formic acid (v/v) in water with 5 mM ammonium formate (solvent A) and acetonitrile with 10% phase A (v/v, solvent B). The analyte and internal standard (IS, erlotinib) were eluted using a gradient run of 10 min as follows: 95% A at 0–2 min; 95%–5% A at 2–4 min; 5% A at 4–5 min; 5%–95% A at 5–6 min; 95% A at 6–10 min. The flow rate and injection volume were set at 0.7 mL/min and 10 μL, respectively. The needle was washed for 30 s in a mixture of acetonitrile, methanol, isopropanol, water, and formic acid (50:20:15:15:0.25, v/v/v/v/v).

[1] = brain tissue homogenate, oral, lapatinib 100 mg/kg + elacridar, read-out: BT corr (BT homogenate), S
[2] = brain tissue homogenate, oral, lapatinib 100 mg/kg + elacridar, read-out: BT corr (BT homogenate), single rat
[3] = brain tissue homogenate, po, 100 mg/kg, lapatinib p.o. 100 mg/kg alone, read-out: BT corr (BT homogenate corrected), S
[4] = brain tissue homogenate, po, 100 mg/kg, lapatinib p.o. 100 mg/kg alone, read-out: BT corr (BT homogenate corrected), single rat
[5] = brain tissue homogenate, po, 100 mg/kg, lapatinib p.o. 100 mg/kg alone, read-out: Clapatinib in BT, S (medium value)
[6] = brain tissue homogenate, po, 100 mg/kg, lapatinib p.o. 100 mg/kg alone, read-out: Clapatinib in BT, single rat
[7] = brain, oral, lapatinib 100 mg/kg + elacridar, read-out: BT corr (BT homogenate), single rat
[8] = brain, oral, lapatinib 100 mg/kg + elacridar, read-out: Clapatinib in BT, S
[9] = brain, oral, lapatinib 100 mg/kg + elacridar, read-out: Clapatinib in BT, single rat
[10] = brain, po, 100 mg/kg, lapatinib 100 mg/kg oral + 5 mg/kg elacridar (IE+L)
[11] = brain, po, 100 mg/kg, lapatinib 100 mg/kg oral alone (IIL)

- concentration at 2 h [1]: 71.3 ng/mL
- concentration at 3 h [1]: 198 ng/mL
- concentration at 3 h [2]: 170 ng/mL
- concentration at 4 h [1]: 85 ng/mL
- concentration at 4 h [2]: 91.9 ng/mL
- concentration at 6 h [1]: 85.8 ng/mL
- concentration at 6 h [2]: 87.3 ng/mL
- concentration at 8 h [1]: 85 ng/mL
- concentration at 8 h [2]: 91.5 ng/mL
- concentration at 12 h [1]: 54.4 ng/mL
- concentration at 12 h [2]: 63.6 ng/mL
- concentration at 24 h [1]: 44.7 ng/mL
- concentration at 24 h [2]: 52.7 ng/mL
- concentration at 0.25 h [3]: 27.9 ng/mL
- concentration at 0.25 h [4]: 22.5 ng/mL
- concentration at 0.25 h [5]: 34.3 ng/mL
- concentration at 0.25 h [6]: 27.7 ng/mL
- concentration at 0.5 h [3]: 31.5 ng/mL
- concentration at 0.5 h [4]: 24 ng/mL
- concentration at 0.5 h [5]: 44.9 ng/mL
- concentration at 0.5 h [6]: 36.2 ng/mL
- concentration at 1 h [3]: 55.5 ng/mL
- concentration at 1 h [4]: 48.1 ng/mL
- concentration at 1 h [5]: 76 ng/mL
- concentration at 1 h [6]: 66.5 ng/mL
- concentration at 2 h [3]: 41.4 ng/mL
- concentration at 2 h [4]: 30.1 ng/mL
- concentration at 2 h [5]: 63.7 ng/mL
- concentration at 2 h [6]: 49.8 ng/mL
- concentration at 3 h [3]: 111 ng/mL
- concentration at 3 h [4]: 139 ng/mL
- concentration at 3 h [5]: 134 ng/mL
- concentration at 3 h [6]: 115 ng/mL
- concentration at 4 h [3]: 115 ng/mL
- concentration at 4 h [4]: 94.2 ng/mL
- concentration at 4 h [5]: 147 ng/mL
- concentration at 4 h [6]: 133 ng/mL
- concentration at 6 h [3]: 81.9 ng/mL
- concentration at 6 h [5]: 101 ng/mL
- concentration at 6 h [6]: 131 ng/mL
- concentration at 8 h [3]: 66.2 ng/mL
- concentration at 8 h [4]: 87.5 ng/mL
- concentration at 8 h [5]: 85.5 ng/mL
- concentration at 8 h [6]: 108 ng/mL
- concentration at 12 h [5]: 59.6 ng/mL
- concentration at 0.25 h [7]: 30.7 ng/mL
- concentration at 0.25 h [8]: 40.8 ng/mL
- concentration at 0.25 h [9]: 37.6 ng/mL
- concentration at 0.5 h [7]: 45.2 ng/mL
- concentration at 0.5 h [8]: 58.8 ng/mL
- concentration at 0.5 h [9]: 62 ng/mL
- concentration at 1 h [8]: 98.6 ng/mL
- concentration at 1 h [9]: 95.2 ng/mL
- concentration at 2 h [8]: 102 ng/mL
- concentration at 3 h [8]: 221 ng/mL
- concentration at 3 h [9]: 198 ng/mL
- concentration at 4 h [8]: 97.6 ng/mL
- concentration at 4 h [9]: 107 ng/mL
- concentration at 6 h [8]: 98.7 ng/mL
- concentration at 6 h [9]: 100 ng/mL
- concentration at 8 h [8]: 102 ng/mL
- concentration at 8 h [9]: 98.5 ng/mL
- concentration at 12 h [9]: 86.5 ng/mL
- concentration at 24 h [8]: 56.9 ng/mL
- concentration at 24 h [9]: 65.5 ng/mL
- AUC(0-inf) [10]: 2520 ± 611 ng·h/mL
- AUC(0-t) [10]: 1610 ± 131 ng·h/mL
- Cmax [10]: 198 ± 39 ng/mL
- Tmax [10]: 3 h
- k el [10]: 1.39e-05 s⁻¹
- AUC(0-inf) [11]: 1350 ± 712 ng·h/mL
- AUC(0-t) [11]: 836 ± 21.2 ng·h/mL
- Cmax [11]: 128 ± 16.4 ng/mL
- Tmax [11]: 4.5 ± 2.12 h
- k el [11]: 6.94e-05 s⁻¹
- concentration at 12 h (brain, po, 100 mg/kg, lapatinib p.o. 100 mg/kg alone, read-out: BT corr (BT homogenate corrected), S): 44.5 ng/mL
Structure (SMILES): CS(=O)(=O)CCNCc1ccc(-c2ccc3ncnc(Nc4ccc(OCc5cccc(F)c5)c(Cl)c4)c3c2)o1 [lapatinib, N-{3-Chloro-4-[(3-fluorobenzyl)oxy]phenyl}-6-[5-({[2-(methylsulfonyl)ethyl]amino}methyl)-2-furyl]-4-quinazolinamine]
